ChEMBL document CHEMBL1122334, “New azacannabinoids highly active in the central nervous system” (1983)

Tests used:
Format in all cases: functional
Rattus norvegicus [1] = test: The compound was tested for serotonin antagonism in rat at a dose of 80 mg/Kg
Mus musculus [2] = test: The compound was tested for analgesic activity using writhing (W) test in mouse at a dose of 10 mg/Kg
Rattus norvegicus [3] = test: The compound was tested for decreasing motor activity in rat at a dose of 80 mg/Kg
Rattus norvegicus [4] = test: The compound was tested for serotonin antagonism in rat at a dose of 5 mg/Kg
Rattus norvegicus [5] = test: The compound was tested for hyperexcitability in rat at a dose of 20 mg/Kg
Rattus norvegicus [6] = test: The compound was tested for decreasing motor activity in rat at a dose of 20 mg/Kg
Rattus norvegicus [7] = test: The compound was tested for hyperexcitability in rat at a dose of 5 mg/Kg
Rattus norvegicus [8] = test: The compound was tested for serotonin antagonism in rat at a dose of 20 mg/Kg
Rattus norvegicus [9] = test: The compound was tested for decreasing motor activity in rat. at a dose of 5 mg/Kg
Rattus norvegicus [10] = test: The compound was tested for methamphetamine antagonism in rat at a dose of 80 mg/Kg
Rattus norvegicus [11] = test: The compound was tested for hyperexcitability in rat at a dose of 80 mg/Kg
Rattus norvegicus [12] = test: The compound was tested for methamphetamine antagonism in rat at a dose of 5 mg/Kg
Rattus norvegicus [13] = test: The compound was tested for methamphetamine antagonism in rat at a dose of 20 mg/Kg
Mus musculus [14] = test: The compound was tested for activity to decrease fighting in mouse at a dose of 20 mg/Kg
Mus musculus [15] = test: The compound was tested for activity to decrease fighting in mouse at a dose of 5 mg/Kg
Rattus norvegicus [16] = test: The compound was tested for decreasing motor activity in rat at a dose of 5 mg/Kg
Rattus norvegicus [17] = species: Rattus norvegicus; test: The compound was tested for analgesic activity using (RTF) tail-flick test in rat
Rattus norvegicus [18] = test: The compound was tested for decreasing motor activity in rat at a dose of 10 mg/Kg
Mus musculus [19] = species: Mus musculus; test: The compound was tested for analgesic activity using writhing (W) test in mouse
Mus musculus [20] = test: The compound was tested for analgesic activity using writhing (W) test in mouse at a dose of 51 mg/Kg
Rattus norvegicus [21] = test: The compound was tested for hyper excitability in rat at a dose of 80 mg/Kg
Rattus norvegicus [22] = test: The compound was tested for hyper excitability in rat at a dose of 20 mg/Kg
Rattus norvegicus [23] = test: The compound was tested for hyperexcitability in rat. at a dose of 5 mg/Kg
Rattus norvegicus [24] = test: The compound was tested for analgesic activity using (RTF) tail-flick test at a dose of 40 mg/Kg
Mus musculus [25] = test: The compound was tested for analgesic activity using writhing (W) test in mouse at a dose of 40 mg/Kg
Rattus norvegicus [26] = test: The compound was tested for analgesic activity using (RTF) tail-flick test in rat at a dose of 40 mg/Kg
Mus musculus [27] = test: The compound was tested for activity to decrease fighting in mouse at a dose of 10 mg/Kg
Rattus norvegicus [28] = test: The compound was tested for decreasing motor activity in rat at a dose of 1 mg/Kg
Rattus norvegicus [29] = test: The compound was tested for decreasing motor activity in rat at a dose of 4 mg/Kg
Rattus norvegicus [30] = test: The compound was tested for hyperexcitability in rat at a dose of 10 mg/Kg
Rattus norvegicus [31] = test: The compound was tested for hyperexcitability in rat. at a dose of 80 mg/Kg
Rattus norvegicus [32] = test: The compound was tested for analgesic activity using (RTF) tail-flick test in rat at a dose of 20 mg/Kg

Structure (SMILES) | Decrease in activity (Rattus norvegicus [1]) | increase in response (Mus musculus [2]) | Decrease in activity (Rattus norvegicus [3]) | Decrease in activity (Rattus norvegicus [4]) | Possible response (Rattus norvegicus [5]) | Decrease in activity (Rattus norvegicus [6]) | Possible response (Rattus norvegicus [7]) | Decrease in activity (Rattus norvegicus [8]) | Decrease in activity (Rattus norvegicus [9]) | Decrease in activity (Rattus norvegicus [10]) | Possible response (Rattus norvegicus [11]) | Decrease in activity (Rattus norvegicus [12]) | Decrease in activity (Rattus norvegicus [13]) | Decrease in fighting (Mus musculus [14]) | Decrease in fighting (Mus musculus [15]) | Decrease in activity (Rattus norvegicus [16]) | also measured
CCCCCC(C)C(C)c1cc(O)c2c(c1)OC(C)(C)C1=C2CN(CCC(N)=O)CC1 (configuration not stated) | -71% | 0% | 83% | -73% | 0% | 65% | 0% | -13% | 49% | 13% | 67% | -4% | 17% |  |  |  | 
CNC(=O)CN1CCC2=C(C1)c1c(O)cc(C(C)CCCc3ccc(F)cc3)cc1OC2(C)C (configuration not stated) | 92% | 71% | 94% | 6% | 100% | 66% | 92% | 63% | 73% | 73% | 100% | 51% | 63% | 93% | 56% |  | 
CCCCCC(C)C(C)c1cc(O)c2c(c1)OC(C)(C)C1=C2CN(CC(=O)NC(=O)Nc2ccccc2)CC1 (configuration not stated) | -17% |  | 51% | -56% | 0% | 42% | 0% | -15% |  | -28% | 0% | -37% | -24% |  |  | 37% | 
CC(CCCc1ccc(F)cc1)c1cc(O)c2c(c1)OC(C)(C)C1=C2CN(CC(=O)N(C)C)CC1 (configuration not stated) | 55% | 24% | 68% | 11% | 10% | 27% | 0% | 12% | 0% | 54% | 69% | -35% | 34% | 12% | 3% |  | 
CCCCCc1cc(O)c2c(c1)OC(C)(C)[C@@H]1CCC(C)=C[C@@H]21 [DRONABINOL] |  |  |  |  | 100% | 72% | 29% |  |  |  |  |  |  |  | 36% | 15% | ED50 (Rattus norvegicus [17]): 27 mg/kg; Decrease in activity (Rattus norvegicus [18]): 41%; ED50 (Mus musculus [19]): 43 mg/kg
CCCCCC(C)C(C)c1cc(O)c2c(c1)OC(C)(C)C1=C2CN(CC(=O)OCC)CC1 (configuration not stated) | 89% | 35% | 60% | 60% |  | 19% |  | 56% |  | 81% |  | 18% | 54% |  |  | 49% | increase in response (Mus musculus [20]): 51%; Possible response (Rattus norvegicus [21]): 81%; Possible response (Rattus norvegicus [22]): 12%; Possible response (Rattus norvegicus [23]): 0%
CCCCCC(C)C(C)c1cc(O)c2c(c1)OC(C)(C)C1=C2CN(CC(=O)NC(=O)NC)CC1 (configuration not stated) | 89% |  | 88% | 34% | 71% | 68% | 35% | 50% |  | 54% | 81% | 38% | 66% |  |  | 63% | 
CCCCCC(C)C(C)c1cc(O)c2c(c1)OC(C)(C)C1=C2CN(CC(N)=O)CC1 (configuration not stated) | 78% | 6% | 86% | 71% | 79% | 78% | 65% | 83% | 28% | 71% | 98% | 42% | 58% | 21% | 10% |  | increase in response (Rattus norvegicus [24]): 132%; increase in response (Mus musculus [25]): 82%
CCCCCC(C)C(C)c1cc(O)c2c(c1)OC(C)(C)C1=C2CN(CC(=O)N(C)C)CC1 (configuration not stated) |  | 19% | 78% |  | 13% | 65% | 0% |  | 53% | 26% | 69% | -43% | -36% | 13% | 10% |  | increase in response (Mus musculus [25]): 86%; increase in response (Rattus norvegicus [26]): 84%
C#CCN1CCC2=C(C1)c1c(O)cc(C(C)CCCc3ccc(F)cc3)cc1OC2(C)C (configuration not stated) |  |  |  |  | 100% |  | 60% |  |  | 84% |  | 8% | 34% |  | -29% |  | ED50 (Rattus norvegicus [17]): 3.7 mg/kg; Decrease in fighting (Mus musculus [27]): 47%; Decrease in activity (Rattus norvegicus [28]): 60%; ED50 (Mus musculus [19]): 5.3 mg/kg; Decrease in activity (Rattus norvegicus [29]): 77%
CCCCCC(C)C(C)c1cc(O)c2c(c1)OC(C)(C)C1=C2CN(C(C)C(=O)NC(N)=O)CC1 (configuration not stated) | 98% |  | 83% | 11% | 63% | 67% | 50% | 43% |  | 81% | 77% | 47% | 50% |  |  | 67% | 
C#CCN1CCC2=C(C1)c1c(O)cc(C(C)C(C)CCCCC)cc1OC2(C)C (configuration not stated) | 33% |  |  | 81% |  |  | 29% | 84% |  | 73% |  | 59% | 80% |  | 48% |  | ED50 (Rattus norvegicus [17]): 14 mg/kg; Decrease in fighting (Mus musculus [27]): 62%; Decrease in activity (Rattus norvegicus [18]): 51%; ED50 (Mus musculus [19]): 4.3 mg/kg; Possible response (Rattus norvegicus [30]): 71%
CCCCCC(C)C(C)c1cc(O)c2c(c1)OC(C)(C)C1=C2CN(CC(=O)Nc2ccccc2)CC1 (configuration not stated) | -13% | 12% | 6% | 3% | 0% | 18% | 0% | -28% |  | -9% | 0% | 0% | 15% |  |  | 4% | 
CCCCCC(C)C(C)c1cc(O)c2c(c1)OC(C)(C)C1=C2CN(CC(=O)NC)CC1 (configuration not stated) | 97% |  | 93% | -54% | 100% | 66% | 92% | 21% |  | 72% |  | 72% | 72% | 34% | 11% | 33% | Possible response (Rattus norvegicus [31]): 100%; increase in response (Rattus norvegicus [32]): 92%; ED50 (Mus musculus [19]): 5.1 mg/kg
CC(CCCc1ccc(F)cc1)c1cc(O)c2c(c1)OC(C)(C)C1=C2CN(CC(=O)NCC(N)=O)CC1 (configuration not stated) | 26% |  | 9% | -17% | 0% | 12% | 0% | -10% |  | 25% | 0% | 1% | 2% |  |  | -11% | 
